Source: patent US5006515A, “Pharmaceuticals, phosphorus-containing 2-isoxazolines and isoxazoles contained therein” (Hoechst Aktiengesellschaft, priority 1987, dated 1991)
Where two headings read alike, the source gives them in different places.

Legend:
[1] = system: active Arthus reaction; assay: Active Arthus reaction in the rat; format: in vivo, Sprague-Dawley rats; details: for change in vivo at 35 mg/kg: oral dose 35 mg/kg; for change in vivo at 50 mg/kg: oral dose 50 mg/kg
Experimental: The experimental animals used were female and male Sprague-Dawley rats with a body weight between 80 and 100 g which received subcutaneous injections into the tail-head of 0.5 ml of an emulsion of pertussis vaccine and ovalbumin in liquid paraffin. After two weeks, the rats were divided into groups each of 8 animals. 24 hours and 1 hour before induction of the Arthus reaction by injection of 0.1 ml of a 0.4% strength ovalbumin solution into the right hind paw, the particular test substance or the pure vehicle (positive control) was administered orally, sodium chloride solution was injected into the left paw. One group of unsensitized animals (negative control group) was likewise treated with ovalbumin in order to be able to rule out nonspecific reactions to the protein. The parameter used for measuring the action of the product was the percentage change in the increase in paw volume compared with that in the control group which was sensitized but untreated (positive control) 4 hours after ovalbumin challenge, when the swelling had reached its maximum.

[2] = Acute toxicity; set-up: species or system mice; details: mouse, in vivo, single dose, mortality within 7 days
Experimental: The LD50 values were determined by the standard method via the mortality occurring within 7 days in NMRI (Naval Medical Research Institute) mice (6 animals per dose) after a single intraperitoneal (i.p.) or intravenous (i.v.) dose.

[3] = system: peritoneal macrophages; assay: Stimulation of the release of lysosomal enzymes from peritoneal macrophages (exocytosis); details: single i.p. dose of 40 mg/kg; maximum activation by Example 34 = 100%
[4] = target: leucine aminopeptidase; assay: Inhibition of leucine aminopeptidase; format: biochemical; details: substrate L-leucine 4-nitroanilide
Experimental: The activity of the enzyme aminopeptidase B was determined photometrically using the substrate L-lysine 2-naphthylamide at room temperature. […] In the same way, the inhibition of leucine aminopeptidase was investigated using L-leucine 4-nitroanilide as enzyme substrate. The IC50 values are compiled in Table 6.

[5] = system: DTH reaction to sheep erythrocytes; assay: Delayed-type hypersensitivity (DTH) reaction to sheep erythrocytes; format: in vivo, female NMRI mice; details: single i.p. dose of 40 mg/kg; maximal stimulation by Example 34 = 100%
Experimental: Groups each comprising 5 female NMRI mice with a body weight of 18 to 20 g were formed, and each animal was given 10^6 or 10^9 sheep red blood cells intravenously. Sheep erythrocytes are regarded in immunology as a standard antigen with which it is possible to check cellular and humoral immunoreactivity, especially the functioning of the T-cell-dependent component of the immune system, the so-called T-helper cells. The test substances were administered, in intraperitoneal doses of 5 to 100 mg/kg in physiological saline, at the same time as the antigen. After 5 days, each animal was given an injection of 2×10^8 sheep erythrocytes into the footpad. 24 hours later, the swelling of the foot was measured. The foot swelling is induced by a skin reaction of the delayed type (DTH reaction) and, as is known to those skilled in the art, is a measure of the cellular immune response (J. Immunol. 101 (1968), 830-845). The test results obtained with the product of Example 34, by way of example, are compiled in Table 7 and illustrate that the compounds of the formula I--administered prophylactically--are able to increase the cellular immune response after immunization with the antigen by stimulation of the T-cell system, with the stimulant action reaching its optimum in this experiment at a dose of 25 mg/kg.

[6] = Rattus norvegicus, po, 4 h, 4 h after ovalbumin challenge, read-out: Active Arthus reaction % change
[7] = Rattus norvegicus, po, 4 h, 4 h after ovalbumin challenge
[8] = Rattus norvegicus, po, 4 h, read-out: Active Arthus reaction % change
[9] = Rattus norvegicus, po, 4 h, oral dose 100 mg/kg, 4 h after ovalbumin challenge, read-out: Active Arthus reaction % change

COP(=O)(OC)C1CC(c2ccccc2)=NO1 (racemic) [Example 5, Dimethyl 3-phenyl-2-isoxazolin-5-ylphosphonate]
Active Arthus reaction % change ([1]; oral dose 100 mg/kg, 4 h after ovalbumin challenge): -20% | LD50 at 168 h ([2]; ip): 300 to 600 mg/kg | Relative stimulation of macrophage activity: Exocytosis [3]: 54%

CP(=O)(NCC(=O)OCc1ccccc1)C1CC(c2ccccc2)=NO1 (stereo not shown) [57/58, N-[3-Phenyl-2-isoxazolin-5-yl(P-methyl)phosphinoyl]glycine benzyl ester]
change in vivo at 12 mg/kg ([1]; Rattus norvegicus, po, 4 h, oral dose 12 mg/kg, 4 h after ovalbumin challenge): 22% | LD50 at 168 h ([2]; iv): 50 to 100 mg/kg

CCOP(=O)(OCC)C1CC(c2ccccc2)=NO1 (stereo not shown) [Example 1, Diethyl 3-phenyl-2-isoxazolin-5-ylphosphonate]
Leucine aminopeptidase IC50 [4]: 65 μug/ml

CP(C)(=O)C1CC(c2ccccc2)=NO1 (stereo not shown) [Example 17, 3-Phenyl-2-isoxazolin-5-yldimethylphosphine oxide]
change in vivo at 35 mg/kg [1, 6]: -34% | LD50 at 168 h ([2]; iv): > 200 mg/kg

CCOP(=O)(O)C1CC(c2ccccc2)=NO1 (stereo not shown) [Example 27, Monoethyl 3-phenyl-2-isoxazolin-5-ylphosphonate]
change in vivo at 70 mg/kg ([1]; Rattus norvegicus, oral dose 70 mg/kg, 4 h after ovalbumin challenge, read-out: Active Arthus reaction % change): 108% | LD50 at 168 h ([2]; iv): > 200 mg/kg | Relative stimulation of the DTH reaction [5]: 94%

CCOP(=O)(O)C1CC(c2ccc(OC)cc2)=NO1 (stereo not shown) [Example 28, Monoethyl ammonium 3-(4-methoxyphenyl)-2-isoxazolin-5-ylphosphonate]
change in vivo at 25 mg/kg ([1]; Rattus norvegicus, oral dose 25 mg/kg, 4 h after ovalbumin challenge, read-out: Active Arthus reaction % change): -12% | LD50 at 168 h ([2]; iv): > 200 mg/kg

Cc1ccc(C2=NOC(P(C)(=O)O)C2)cc1 (stereo not shown) [Example 30]
Relative stimulation of the DTH reaction [5]: 76%

CP(=O)(O)C1CC(Cc2ccccc2)=NO1 (stereo not shown) [Example 31]
change in vivo at 50 mg/kg [1, 7]: 66% | LD50 at 168 h ([2]; iv): > 200 mg/kg

CP(=O)(O)C1CC(c2cccc3ccccc23)=NO1 (stereo not shown) [Example 32]
change in vivo at 50 mg/kg [1, 7]: 42% | LD50 at 168 h ([2]; ip): 600 to 1200 mg/kg

CC(C)(C)C1=NOC(P(=O)(O)O)C1 (stereo not shown) [Example 33, 3-tert.butyl-2-isoxazolin-5-ylphosphonic acid]
change in vivo at 100 mg/kg [1, 8]: -15% | LD50 at 168 h ([2]; iv): > 200 mg/kg

O=P(O)(O)CC1CC(c2ccccc2)=NO1 (stereo not shown) [Example 39]
change in vivo at 50 mg/kg [1, 7]: 24% | LD50 at 168 h ([2]; ip): 600 to 1200 mg/kg | Relative stimulation of the DTH reaction [5]: 136%

O=P(O)(O)C1CC(c2ccc(Cl)cc2)=NO1 (stereo not shown) [Example 40]
change in vivo at 50 mg/kg [1, 7]: -23% | LD50 at 168 h ([2]; iv): > 200 mg/kg

O=P(O)(O)CC1CC(c2ccc(Cl)cc2)=NO1 (stereo not shown) [Example 41]
change in vivo at 100 mg/kg [1, 9]: 26% | LD50 at 168 h ([2]; ip): 150 to 300 mg/kg

O=P(O)(O)C1CC(c2ccccn2)=NO1 (stereo not shown) [Example 42]
change in vivo at 35 mg/kg [1, 6]: -33% | LD50 at 168 h ([2]; iv): > 200 mg/kg

O=P(O)(O)C1CC(c2ccncc2)=NO1 (stereo not shown) [Example 43]
change in vivo at 50 mg/kg [1, 7]: -14% | LD50 at 168 h ([2]; iv): > 200 mg/kg

O=P(O)(O)C1CC(c2cccc3ccccc23)=NO1 (stereo not shown) [Example 45]
change in vivo at 50 mg/kg [1, 7]: -25% | LD50 at 168 h ([2]; ip): 75 to 150 mg/kg | Leucine aminopeptidase IC50 [4]: 92 μug/ml

O=P(O)(O)c1cc(-c2ccccc2)no1 [Example 46]
change in vivo at 50 mg/kg [1, 7]: -36% | LD50 at 168 h ([2]; iv): > 200 mg/kg

CCCC1=NOC(P(=O)(O)O)C1 (stereo not shown) [Example 47]
change in vivo at 25 mg/kg [1, 8]: -35% | LD50 at 168 h ([2]; iv): > 200 mg/kg | Leucine aminopeptidase IC50 [4]: 35 μug/ml

COc1ccc(C2=NOC(P(=O)(O)O)C2)cc1 (stereo not shown) [Example 48]
change in vivo at 100 mg/kg [1, 9]: 10% | LD50 at 168 h ([2]; ip): 300 to 600 mg/kg | Leucine aminopeptidase IC50 [4]: 100 μug/ml

O=P(O)(O)C1CC(Cc2ccccc2)=NO1 (stereo not shown) [Example 49]
change in vivo at 50 mg/kg [1, 7]: -59% | LD50 at 168 h ([2]; iv): > 200 mg/kg

O=P(O)(O)c1cc(-c2ccccn2)no1 [Example 50]
change in vivo at 25 mg/kg ([1]; Rattus norvegicus, po, 4 h, oral dose 25 mg/kg, 4 h after ovalbumin challenge, read-out: Active Arthus reaction % change): -18% | LD50 at 168 h ([2]; iv): > 200 mg/kg
